We go through eleven compounds from patent publication US11952363B2, “Piperazine compounds for the treatment of autoimmune disease” (Hoffmann-La Roche Inc., priority 2018, dated 2024).

Series [1] concerns the target T1, human TLR7 (Homo sapiens, UniProt Q9NYK1).
T1 sequence (Q9NYK1 27-1049): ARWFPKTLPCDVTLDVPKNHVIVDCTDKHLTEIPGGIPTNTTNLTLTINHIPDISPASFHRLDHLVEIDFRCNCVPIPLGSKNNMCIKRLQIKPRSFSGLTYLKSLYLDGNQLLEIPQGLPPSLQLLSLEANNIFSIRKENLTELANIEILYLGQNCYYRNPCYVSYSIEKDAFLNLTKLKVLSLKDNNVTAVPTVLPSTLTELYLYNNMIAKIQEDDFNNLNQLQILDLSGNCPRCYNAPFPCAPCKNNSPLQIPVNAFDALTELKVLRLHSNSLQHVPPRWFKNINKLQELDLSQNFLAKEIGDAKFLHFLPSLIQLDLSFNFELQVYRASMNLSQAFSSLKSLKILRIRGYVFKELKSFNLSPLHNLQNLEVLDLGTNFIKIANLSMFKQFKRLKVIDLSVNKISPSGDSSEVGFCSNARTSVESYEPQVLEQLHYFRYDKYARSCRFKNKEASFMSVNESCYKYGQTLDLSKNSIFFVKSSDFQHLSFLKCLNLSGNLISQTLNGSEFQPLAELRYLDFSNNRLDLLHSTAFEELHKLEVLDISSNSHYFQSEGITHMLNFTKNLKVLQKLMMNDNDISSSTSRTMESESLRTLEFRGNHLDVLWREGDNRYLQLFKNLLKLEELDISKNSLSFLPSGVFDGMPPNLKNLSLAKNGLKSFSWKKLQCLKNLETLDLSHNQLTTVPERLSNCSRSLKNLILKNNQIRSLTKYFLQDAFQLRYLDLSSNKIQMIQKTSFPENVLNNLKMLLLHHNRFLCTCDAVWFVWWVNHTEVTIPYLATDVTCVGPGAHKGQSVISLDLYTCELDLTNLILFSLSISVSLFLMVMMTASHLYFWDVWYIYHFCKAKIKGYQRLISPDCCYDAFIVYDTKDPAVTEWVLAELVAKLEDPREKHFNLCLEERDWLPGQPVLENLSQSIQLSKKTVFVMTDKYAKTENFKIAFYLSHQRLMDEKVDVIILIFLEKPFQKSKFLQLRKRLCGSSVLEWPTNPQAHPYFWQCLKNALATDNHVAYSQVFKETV
Kind of series: HEK293-Blue-hTLR-7 cells assay (SEAP reporter, R848 stimulation). Format: cell-based. The settings on record: HEK293-Blue-hTLR7 cells, R848 ligand, 20 hrs incubation; read-out: HEK/hTLR7 IC50. The procedure: The following tests were carried out in order to determine the activity of the compounds of formula (I) in HEK293-Blue-hTLR-7/8/9 cells assay.
A stable HEK293-Blue-hTLR-7 cell line was purchased from InvivoGen (Cat.#: hkb-htlr7, San Diego, California, USA). These cells were originally designed for studying the stimulation of human TLR7 by monitoring the activation of NF-κB. A SEAP (secreted embryonic alkaline phosphatase) reporter gene was placed under the control of the IFN-β minimal promoter fused to five NF-κB and AP-1-binding sites. The SEAP was induced by activating NF-κB and AP-1 via stimulating HEK-Blue hTLR7 cells with TLR7 ligands. Therefore the reporter expression was declined by TLR7 antagonist under the stimulation of a ligand, such as R848 (Resiquimod), for incubation of 20 hrs. The cell culture supernatant SEAP reporter activity was determined using QUANTI-Blue™ kit (Cat.#: rep-qb1, Invivogen, San Diego, Ca, USA) at a wavelength of 640 nm, a detection medium that turns purple or blue in the presence of alkaline phosphatase.
HEK293-Blue-hTLR7 cells were incubated at a density of 250,000˜450,000 cells/mL in a volume of 170 μL in a 96-well plate in Dulbecco's Modified Eagle's medium (DMEM) containing 4.5 g/L glucose, 50 U/mL penicillin, […], […], 2 mM L-glutamine, 10% (v/v) heat-inactivated fetal bovine serum with addition of 20 μL test compound in a serial dilution in the presence of final DMSO at 1% and 10 μL of 20 uM R848 in above DMEM, perform incubation under 37° C. in a CO2 incubator for 20 hrs. Then 20 μL of the supernatant from each well was incubated with […] Quanti-blue substrate solution at 37° C. for 2 hrs and the absorbance was read at 620-655 nm using a spectrophotometer. The signalling pathway that TLR7 activation leads to downstream NF-κB activation has been widely accepted, and therefore similar reporter assay was modified for evaluating TLR7 antagonist.

The nature of series [2]: Human microsomal stability assay. The format is in vitro ADME. The note with it: human liver microsomes 0.5 mg/mL, 1 μM test compound, 37° C., pH 7.4. The protocol: Human liver microsomes (Cat.NO.: 452117, Corning, USA) were preincubated with test compound for 10 minutes at 37° C. in 100 mM potassium phosphate buffer, pH 7.4. The reactions were initiated by adding NADPH regenerating system. The final incubation mixtures contained 1 μM test compound, 0.5 mg/mL liver microsomal protein, 1 mM MgCl2, 1 mM NADP, 1 unit/mL isocitric dehydrogenase and 6 mM isocitric acid in 100 mM potassium phosphate buffer, pH 7.4. After incubation times of 0, 3, 6, 9, 15 and 30 minutes at 37° C., 300 μL of cold ACN (including internal standard) was added to 100 μL incubation mixture to terminate the reaction. Following precipitation and centrifugation, 100 uL supernatant will be taken out and added 300 uL water. The amount of compound remaining in the samples was determined by LC-MS/MS. Controls of no NADPH regenerating system at zero and 30 minutes were also prepared and analyzed.
(Liver microsomes are vesicles of endoplasmic reticulum, rich in cytochrome P450 enzymes.)

Structures are written as SMILES.

For the compound `C[C@@H]1CN(c2ccc(C#N)c3ncccc23)C[C@H](C)N1Cc1ccc(N2CCNCC2)cc1` [Example 1, 5-[(3R,5S)-3,5-Dimethyl-4-[(4-piperazin-1-ylphenyl)methyl]piperazin-1-yl]quinoline-8-carbonitrile], the IC50 in series [1] is 0.053 µM. Further, the “Clearance of Human microsome” value in series [2] is 0.672 L/h/kg.
As for `C[C@@H]1CN(c2ccc(C#N)c3ncccc23)C[C@@H](C)N1Cc1ccc(N2CCNCC2)cc1` [Example 2], the IC50 in series [1] amounted to 0.087 µM. In addition, the “Clearance of Human microsome” value in series [2] worked out at 0.48 L/h/kg.
With `C[C@@H]1CN(c2ccc(C#N)c3ncccc23)C[C@H](C)N1Cc1ccc(N2CCNCC2)nc1` [Example 3, 5-[(3R,5S)-3,5-Dimethyl-4-[(6-piperazin-1-yl-3-pyridyl)methyl]piperazin-1-yl]quinoline-8-carbonitrile], the IC50 in series [1] is 0.019 µM. The “Clearance of Human microsome” value in series [2] was 0.696 L/h/kg.
On the same counts, the results for `C[C@@H]1CN(c2ccc(C#N)c3ncccc23)C[C@H](C)N1Cc1ncc(N2CCNCC2)cn1` [Example 4, 5-[(3S,5R)-3,5-Dimethyl-4-[(5-piperazin-1-ylpyrimidin-2-yl)methyl]piperazin-1-yl]quinoline-8-carbonitrile] are 0.016 µM and 0.624 L/h/kg.
For `C[C@@H]1CN(c2ccc(C#N)c3ncccc23)C[C@H](C)N1Cc1ccc(N2CCNCC2)cn1` [Example 5, 5-[(3S,5R)-3,5-Dimethyl-4-[(5-piperazin-1-yl-2-pyridyl)methyl]piperazin-1-yl]quinoline-8-carbonitrile], the IC50 in series [1] turned out to be 0.012 µM.
In the case of `C[C@@H]1CN(c2ccc(C#N)c3ncccc23)C[C@H](C)N1Cc1ncc(N2CCN(C(=O)CN(C)C)CC2)cn1` [Example 6, 5-[(3S,5R)-4-[[5-[4-[2-(Dimethylamino)acetyl]piperazin-1-yl]pyrimidin-2-yl]methyl]-3,5-dimethyl-piperazin-1-yl]quinoline-8-carbonitrile], the IC50 in series [1] was found to be 0.067 µM. Besides, the “Clearance of Human microsome” value in series [2] was 0.63 L/h/kg.
As to `C[C@@H]1CN(c2ccc(C#N)c3ncccc23)C[C@H](C)N1Cc1ccc(N2CCN(C)CC2)cn1` [Example 7, 5-[(3S,5R)-3,5-dimethyl-4-[[5-(4-methylpiperazin-1-yl)-2-pyridyl]methyl]piperazin-1-yl]quinoline-8-carbonitrile], in series [1], the IC50 was determined as 0.03 µM.
With `C[C@@H]1CN(c2ccc(C#N)c3ncccc23)C[C@H](C)N1Cc1ccc(N2CCN(C(=O)C3CCCN3)CC2)cn1` (stereo partly drawn) [Example 10, 5-[(3R,5S)-3,5-Dimethyl-4-[[5-[4-(pyrrolidine-2-carbonyl)piperazin-1-yl]-2-pyridyl]methyl]piperazin-1-yl]quinoline-8-carbonitrile], in series [1], the IC50 came out at 0.069 µM.
Take `C[C@@H]1CN(c2ccc(C#N)c3ncccc23)C[C@H](C)N1Cc1ccc(N2CCN(C(=O)CN(C)C)CC2)cn1` [Example 11, 5-[(3S,5R)-4-[[5-[4-[2-(Dimethylamino)acetyl]piperazin-1-yl]-2-pyridyl]methyl]-3,5-dimethyl-piperazin-1-yl]quinoline-8-carbonitrile]: the IC50 in series [1] came out at 0.05 µM.
On the same count and under the same terms, then `C[C@@H]1CN(c2ccc(C#N)c3ncccc23)C[C@H](C)N1CC(=O)N1CCc2nc(N3CCNCC3)ccc2C1` [Example 13, 5-[(3R,5S)-3,5-Dimethyl-4-[2-oxo-2-(2-piperazin-1-yl-7,8-dihydro-5H-1,6-naphthyridin-6-yl)ethyl]piperazin-1-yl]quinoline-8-carbonitrile], with 0.056 µM; and `C[C@@H]1CN(c2ccc(C#N)c3ncccc23)C[C@H](C)N1CC(=O)N1CCc2ccc(N3CCNCC3)cc2C1` [Example 15, 5-[(3R,5S)-3,5-dimethyl-4-[2-pxp-2-(7-piperazin-1-yl-3,4-dihydro-1H-isoquinolin-2-yl)ethyl]piperazin-1-yl]quinoline-8-carbonitrile], with 0.067 µM.
